What is called LC50 is the concentration lethal to half of the exposed cells or organisms.

Data on 22 compounds can be found in US20240150356A1, “Pyrimidine amide compounds and use thereof” (ALPHALA CO., LTD., priority 2019, published 2024).

Where two headings read alike, the source gives them in different places.

Format in all cases: cell-based
Experiment [1] has as its system SW480 (colon adenocarcinoma cell line). The experiment can be described thus: In vitro MTS cell viability assay (NCI-60 methodology), SW480. Particulars: Homo sapiens, SW480 cells, read-out: SW480 LC50. On the procedure: (§1) The cell viability measurement is based on the NCI-60 screening methodology (Nat. Rev. Cancer 6, 813-823, 2006). Briefly, cells are inoculated into 96-well plates at the optimal plating density. After 24 h, one of the two plates for Hep3B cell line is processed to determine a time zero cell viability (Tz) by MTS assay (Promega). Compounds are added over a 2-fold serial dilution to provide a total five drug concentrations plus DMSO control. Plates are incubated for a further 2 days, then measured cell viability by MTS assay [control growth (C) and test growth in the presence of drug at the five concentration levels (Ti)]. The LC50 is calculated from [(Ti−Tz)/Tz]×100=−50, which is the drug concentration resulting in a 50% reduction at the end of the drug treatment as compared to that at the beginning.
(§2) The compounds prepared in Tables 1-10 were tested in three in vitro assays, and the results are shown in Tables 1-10 for Hep3B and Table 11 for SW480 and NCI-H460 shown below. Herein, Hep3B refers to hepatocellular carcinoma cell line, SW480 refers to colon adenocarcinoma cell line, and NCI-H460 refers to human lung cancer cell line.
(§3) Shown in Tables 11 are in vitro activities of exemplary compounds of formula (I).
(Tetrazolium assays rely on reduction of a dye to a coloured formazan, in cell work by metabolically active cells.)

For experiment [2], the system named is NCI-H460 (human lung cancer cell line). The experiment can be described thus: In vitro MTS cell viability assay (NCI-60 methodology), NCI-H460. The following applies: NCI-H460 cells, read-out: NCI-H460 LC50. On the procedure:
as §1, §2, §3

Experiment [3] relates to Hep3B cells (hepatocellular carcinoma cell line). Briefly: In vitro MTS cell viability assay (NCI-60 methodology), Hep3B. Particulars: Homo sapiens, 48 h, 2 days drug incubation, 50% reduction vs time zero, read-out: Hep3B LC50. In outline: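 Hep3B cells given five 2-fold dilutions of compound for 2 days, with viability by MTS measured at time zero and at end. LC50 is the concentration giving a 50% fall in viable cells relative to the start of treatment, per NCI-60 formula.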

Regarding `Cn1ncc2c(NC(=O)c3ccc([N+](=O)[O-])s3)nc(-c3ccc(C(F)(F)F)cc3)nc21` [Compound 1-4, N-(1-methyl-6-(4-(trifluoromethyl)phenyl)-1H-pyrazolo[3,4-d]pyrimidin-4-yl)-5-nitrothiophene-2-carboxamide], the CC50 in experiment [1] was 6190 nM; in experiment [2], 3560 nM.

For the compound `Cn1ncc2c(NC(=O)c3ccc([N+](=O)[O-])s3)nc(-c3ccc(OC(F)(F)F)cc3)nc21` [Compound 1-5, N-(1-methyl-6-(4-(trifluoromethoxy)phenyl)-1H-pyrazolo[3,4-1]pyrimidin-4-yl)-5-nitrothiophene-2-carboxamide], the CC50 in experiment [1] was found to be 4320 nM; in experiment [2], 2850 nM.

Regarding `Cn1ncc2c(NC(=O)c3ccc([N+](=O)[O-])s3)nc(/C=C/c3ccc(C(F)(F)F)cc3)nc21` [Compound 1-11, (E)-N-(1-methyl-6-(4-(trifluoromethyl)styryl)-1H-pyrazolo[3,4-d]pyrimidin-4-yl)-5-nitrothiophene-2-carboxamide], the CC50 in experiment [1] amounted to 2240 nM; in experiment [2], 2620 nM. In addition, the LC50 in experiment [3] (Table 1, MTS) stood at 1710 nM.

On to `CC(C)n1ncc2c(NC(=O)c3ccc([N+](=O)[O-])s3)nc(-c3ccc(OC(F)(F)F)cc3)nc21` [Compound 1-22, N-(1-isopropyl-6-(4-(trifluoromethoxy)phenyl)-1H-pyrazolo[3,4-d]pyrimidin-4-yl)-5-nitrothiophene-2-carboxamide], for which the results for the CC50 in experiment [1] and in experiment [2] were 5380 nM and 2180 nM, respectively. In addition, the LC50 in experiment [3] (Table 1, MTS) stood at 730 nM.

Consider `CC(C)(C)n1ncc2c(NC(=O)c3ccc([N+](=O)[O-])s3)nc(-c3ccc(OC(F)(F)F)cc3)nc21` [Compound 1-27, N-(1-(tert-butyl)-6-(4-(trifluoromethoxy)phenyl)-1H-pyrazolo[3,4-d]pyrimidin-4-yl)-5-nitrothiophene-2-carboxamide], for which the CC50 in experiment [1] worked out at 4140 nM; in experiment [2] it was 1990 nM. Moreover, the LC50 in experiment [3] (Table 1, MTS) is 610 nM.

Take `Cc1csc2c(NC(=O)c3ccc([N+](=O)[O-])s3)nc(-c3ccc(C(F)(F)F)cc3)nc12` [Compound 4-2, N-(7-methyl-2-(4-(trifluoromethyl)phenyl)thieno[3,2-d]pyrimidin-4-yl)-5-nitrothiophene-2-carboxamide]: the CC50 was found to be 10100 nM in experiment [1] and 1650 nM in experiment [2]. Also, in experiment [3] (Table 4, MTS), the 50% lethal concentration (LC50) came to 970 nM.

On to `Cc1csc2c(NC(=O)c3ccc([N+](=O)[O-])s3)nc(-c3cccc(OC(F)(F)F)c3)nc12` [Compound 4-5, N-(7-methyl-2-(3-(trifluoromethoxy)phenyl)thieno[3,2-d]pyrimidin-4-yl)-5-nitrothiophene-2-carboxamide], for which the CC50 is 3510 nM in experiment [1] and 2450 nM in experiment [2]. Also, in experiment [3] (Table 4, MTS), the median lethal concentration (LC50) turned out to be 790 nM.

`O=C(Nc1nc(N2CCC(F)(F)C2)nc2c1cnn2-c1ccccc1)c1ccc([N+](=O)[O-])s1` [Compound 5-6, N-(6-(3,3-difluoropyrrolidin-1-yl)-1-phenyl-1H-pyrazolo[3,4-d]pyrimidin-4-yl)-5-nitrothiophene-2-carboxamide]: the CC50 in experiment [1] is 1960 nM; in experiment [2], 1460 nM. For the same compound, the LC50 in experiment [3] (Table 5, MTS) turned out to be 530 nM.

`O=C(Nc1nc(-c2cccs2)nc2c1cnn2-c1ccccc1)c1ccc([N+](=O)[O-])s1` [Compound 5-18, 5-nitro-N-(1-phenyl-6-(thiophen-2-yl)-1H-pyrazolo[3,4-d]pyrimidin-4-yl)thiophene-2-carboxamide]: the CC50 in experiment [1] amounted to 2430 nM; in experiment [2], 460 nM. Further, the LC50 in experiment [3] (Table 5, MTS) came to 580 nM.

For the compound `O=C(Nc1nc(-c2ccc(F)nc2)nc2c1cnn2-c1ccccc1)c1ccc([N+](=O)[O-])s1` [Compound 5-28, N-(6-(6-fluoropyridin-3-yl)-1-phenyl-1H-pyrazolo[3,4-d]pyrimidin-4-yl)-5-nitrothiophene-2-carboxamide], the CC50 in experiment [1] was 590 nM; in experiment [2], 280 nM. The LC50 in experiment [3] (Table 5, MTS) was 130 nM.

As to `O=C(Nc1nc(-c2cccc(Cl)c2)nc2c1cnn2-c1ccccc1)c1ccc([N+](=O)[O-])s1` [Compound 5-29, N-(6-(3-chlorophenyl)-1-phenyl-1H-pyrazolo[3,4-d]pyrimidin-4-yl)-5-nitrothiophene-2-carboxamide], the CC50 turned out to be 660 nM in experiment [1] and 950 nM in experiment [2]. Moreover, the median lethal concentration (LC50) in experiment [3] (Table 5, MTS) was found to be 210 nM.

Consider `O=C(Nc1nc(-c2ccc(Cl)cc2)nc2c1cnn2-c1ccccc1)c1ccc([N+](=O)[O-])s1` [Compound 5-30, N-(6-(4-chlorophenyl)-1-phenyl-1H-pyrazolo[3,4-d]pyrimidin-4-yl)-5-nitrothiophene-2-carboxamide], for which the figures for the CC50 in experiment [1] and in experiment [2] were 2690 nM and 540 nM, respectively. Moreover, the LC50 in experiment [3] (Table 5, MTS) turned out to be 350 nM.

`O=C(Nc1nc(-c2ccc(Cl)nc2)nc2c1cnn2-c1ccccc1)c1ccc([N+](=O)[O-])s1` [Compound 5-31, N-(6-(6-chloropyridin-3-yl)-1-phenyl-1H-pyrazolo[3,4-d]pyrimidin-4-yl)-5-nitrothiophene-2-carboxamide]: the CC50 in experiment [1] amounted to 860 nM; in experiment [2], 410 nM. In addition, in experiment [3] (Table 5, MTS), the LC50 is 100 nM.

Turning to `N#Cc1ccc(-c2nc(NC(=O)c3ccc([N+](=O)[O-])s3)c3cnn(-c4ccccc4)c3n2)cc1` [Compound 5-32, N-(6-(4-cyanophenyl)-1-phenyl-1H-pyrazolo[3,4-d]pyrimidin-4-yl)-5-nitrothiophene-2-carboxamide], the CC50 in experiment [1] was determined as 2770 nM; in experiment [2], 1160 nM. The LC50 in experiment [3] (Table 5, MTS) turned out to be 110 nM.

As to `N#Cc1ccc(-c2nc(NC(=O)c3ccc([N+](=O)[O-])s3)c3cnn(-c4ccccc4)c3n2)cn1` [Compound 5-33, N-(6-(6-cyanopyridin-3-yl)-1-phenyl-1H-pyrazolo[3,4-d]pyrimidin-4-yl)-5-nitrothiophene-2-carboxamide], the CC50 in experiment [1] worked out at 600 nM; in experiment [2], 1800 nM. The median lethal concentration (LC50) in experiment [3] (Table 5, MTS) was determined as 300 nM.

For the compound `COc1ccc(-c2nc(NC(=O)c3ccc([N+](=O)[O-])s3)c3cnn(-c4ccccc4)c3n2)cn1` [Compound 5-35, N-(6-(6-methoxypyridin-3-yl)-1-phenyl-1H-pyrazolo[3,4-d]pyrimidin-4-yl)-5-nitrothiophene-2-carboxamide], the CC50 in experiment [1] is 1110 nM; in experiment [2], 650 nM. Besides, the LC50 in experiment [3] (Table 5, MTS) is 180 nM.

With `O=C(Nc1nc(-c2ccc(C(F)(F)F)cc2)nc2c1cnn2-c1ccccc1)c1ccc([N+](=O)[O-])s1` [Compound 5-39, 5-nitro-N-(1-phenyl-6-(4-(trifluoromethyl)phenyl)-1H-pyrazolo[3,4-d]pyrimidin-4-yl)thiophene-2-carboxamide], the values for the CC50 in experiment [1] and in experiment [2] were greater than 10000 nM and 1250 nM, respectively. In experiment [3] (Table 5, MTS), the 50% lethal concentration (LC50) amounted to 320 nM.

Take `O=C(Nc1nc(-c2ccc(OC(F)(F)F)cc2)nc2c1cnn2-c1ccccc1)c1ccc([N+](=O)[O-])s1` [Compound 5-40, 5-nitro-N-(1-phenyl-6-(4-(trifluoromethoxy)phenyl)-1H-pyrazolo[3,4-d]pyrimidin-4-yl)thiophene-2-carboxamide]: the CC50 in experiment [1] was 5420 nM; in experiment [2], 930 nM. For the same compound, the LC50 in experiment [3] (Table 5, MTS) came to 430 nM.

For `O=C(Nc1nc(-c2ccc(N3CCCCC3)nc2)nc2c1cnn2-c1ccccc1)c1ccc([N+](=O)[O-])s1` [Compound 5-42, 5-nitro-N-(1-phenyl-6-(6-(piperidin-1-yl)pyridin-3-yl)-1H-pyrazolo[3,4-d]pyrimidin-4-yl)thiophene-2-carboxamide], the CC50 in experiment [1] stood at 890 nM; in experiment [2] it was 1670 nM. In addition, in experiment [3] (Table 5, MTS), the LC50 stood at 510 nM.

Consider `O=C(Nc1nc(-c2ccc(F)c(F)c2)nc2c1cnn2-c1ccccc1)c1ccc([N+](=O)[O-])s1` [Compound 5-44, N-(6-(3,4-difluorophenyl)-1-phenyl-1H-pyrazolo[3,4-d]pyrimidin-4-yl)-5-nitrothiophene-2-carboxamide], for which the CC50 in experiment [1] was found to be 1620 nM; in experiment [2], 4640 nM. Besides, the LC50 in experiment [3] (Table 5, MTS) is 250 nM.

`O=C(Nc1nc(-c2ccc(F)cc2F)nc2c1cnn2-c1ccccc1)c1ccc([N+](=O)[O-])s1` [Compound 5-45, N-(6-(2,4-difluorophenyl)-1-phenyl-1H-pyrazolo[3,4-d]pyrimidin-4-yl)-5-nitrothiophene-2-carboxamide]: the CC50 in experiment [1] turned out to be 1110 nM; in experiment [2] it was 2180 nM. Further, the LC50 in experiment [3] (Table 5, MTS) came out at 440 nM.

For the compound `CC1CC(C)CC(n2ncc3c(NC(=O)c4ccc([N+](=O)[O-])s4)nc(-c4ccc(Cl)cc4F)nc32)C1` (centres unmarked) [Compound 10-72, N-(6-(4-chloro-2-fluorophenyl)-1-(3,5-dimethylcyclohexyl)-1H-pyrazolo[3,4-d]pyrimidin-4-yl)-5-nitrothiophene-2-carboxamide], the LC50 in experiment [3] (Table 10, MTS) stood at 760 nM.
